# Values of other authors as cited in publication PMC2929769 (Toxicon : official journal of the International Society on …, 2010).
# Tested on: RTA
# Details: read-out: RTA IC50
smiles,measurement,value
"Nc1nc(=O)c(CCCc2ccc(C(=O)O)cc2)c(O)[nH]1 [PBA, 4-[3-(2-amino-1,4-dihydro-6-hydroxy-4-oxo-5-pyrimidinyl)propyl]-benzoic acid]",IC50,270 µM
